Common to all, as to assay type: cell-based
Experiment [1] deals with human breast cancer cell line (MDA MB 231). Description: MTT cytotoxicity assay, breast cancer cell line. Conditions: Homo sapiens, MDA-MB-231, read-out: EC50/μM Breast MDA MB231. As for the experimental part:
(§1) The compounds include those whose preparations are described above and compounds made by preparative methods corresponding to the methods described above.
(§2) Compounds were diluted over a range of concentrations and added to cells over 1 to 3 days. The cytotoxity was determined using a MTT assay at the end of each experiment.
On the technique in general: Formazan colour is commonly taken as a measure of viable cells.

In experiment [2] the test system is human colon cancer cell line (HT115). As to the kind of experiment: MTT cytotoxicity assay, colon cancer cell line. On the procedure:
as §1, §2

The test system of experiment [3] is human prostate cancer cell line (PC-3). Description: MTT cytotoxicity assay, prostate cancer cell line. Conditions: read-out: EC50/μM Prostate PC-3. As for the experimental part: as §1, §2
Setting [4] is: Homo sapiens, HT115, read-out: EC50/μM Colon HT115, MTT assay, compounds added to cells over 1 to 3 days.
The mark [5] stands for this setting: MTT assay, compounds added to cells over 1 to 3 days, read-out: EC50/μM Colon HT115.
Setting [6] is: MTT assay, compounds added to cells over 1 to 3 days.

Read-outs that look alike come from different tables or passages of the source.

`O=c1[nH]c(=O)n([C@H]2CC(O)[C@@H](CO)O2)cc1/C=C/Br` (stereo in doubt) [Example A, 5-(2-Bromovinyl)-2′-deoxyuridine, reference compound]: the results for the EC50 in experiment [1], in experiment [2] (setting [4]) and in experiment [3] (Homo sapiens) were 125 µM, 78.7 µM and 120 µM, respectively.

Take `COC(=O)[C@H](C)NP(=O)(OC[C@H]1O[C@@H](n2cc(/C=C/Br)c(=O)[nH]c2=O)CC1O)Oc1ccccc1` (stereo partly drawn) [Example 1, (E)-5-(2-Bromovinyl)-2′-deoxyuridine-5′-[phenyl-(methoxy-L-alaninyl)]-phosphate, reference compound]: the EC50 in experiment [1] was found to be 79 µM; in experiment [2] (setting [4]), 244 µM; in experiment [2] (read-out: EC50/μM Colon HT115, MTT assay, compounds added to cells over 1 to 3 days), 244 µM; in experiment [3] (Homo sapiens) it was 155 µM.

In the case of `C[C@H](NP(=O)(OC[C@H]1O[C@@H](n2cc(/C=C/Br)c(=O)[nH]c2=O)CC1O)Oc1ccc(C(F)(F)F)cc1)C(=O)OCc1ccccc1` (stereo partly drawn) [Example 4, (E)-5-(2-Bromovinyl)-2′-deoxyuridine-5′-[para-trifluorophenyl-(benzoxy-L-alaninyl)]-phosphate], the EC50 was found to be 31 µM in experiment [1], 7.4 µM in experiment [2] (setting [4]) and 9.3 µM in experiment [3] (Homo sapiens).

As for `COC(=O)[C@H](C)NP(=O)(OC[C@H]1O[C@@H](n2cc(/C=C/Br)c(=O)[nH]c2=O)CC1O)Oc1ccc(F)cc1` (stereo partly drawn) [Example 5, (E)-5-(2-Bromovinyl)-2′-deoxyuridine-5′-[para-fluorophenyl-(methoxy-L-alaninyl)]-phosphate], the EC50 in experiment [1] worked out at 159 µM; in experiment [2] (setting [4]), 17 µM; in experiment [3] (Homo sapiens), 58 µM.

With `CCOC(=O)[C@H](C)NP(=O)(OC[C@H]1O[C@@H](n2cc(/C=C/Br)c(=O)[nH]c2=O)CC1O)Oc1ccc(F)cc1` (stereo partly drawn) [Example 6, (E)-5-(2-Bromovinyl)-2′-deoxyuridine-5′-[para-fluorophenyl-(ethoxy-L-alaninyl)]-phosphate], the EC50 was found to be 46 µM in experiment [1], 11 µM in experiment [2] (setting [4]) and 42 µM in experiment [3] (Homo sapiens).

For `C[C@H](NP(=O)(OC[C@H]1O[C@@H](n2cc(/C=C/Br)c(=O)[nH]c2=O)CC1O)Oc1ccc(F)cc1)C(=O)OCc1ccccc1` (stereo partly shown) [Example 7], the EC50 in experiment [1] came to 17 µM; in experiment [2] (setting [4]), 3.5 µM; in experiment [3] (Homo sapiens), 16 µM.

As for `C[C@H](NP(=O)(OC[C@H]1O[C@@H](n2cc(/C=C/Br)c(=O)[nH]c2=O)CC1O)Oc1ccc([N+](=O)[O-])cc1)C(=O)OCc1ccccc1` (stereo partly drawn) [Example 8, (E)-5-(2-Bromovinyl)-2′-deoxyuridine-5′-[para-nitrophenyl-(benzoxy-L-alaninyl)]-phosphate], the EC50 is 28 µM in experiment [1] and 9 µM in experiment [2] (setting [4]).

Take `CCOC(=O)[C@H](C)NP(=O)(OC[C@H]1O[C@@H](n2cc(/C=C/Br)c(=O)[nH]c2=O)CC1O)Oc1ccc([N+](=O)[O-])cc1` (stereo partly drawn) [Example 9, (E)-5-(2-Bromovinyl)-2′-deoxyuridine-5′-[para-nitrophenyl-(ethoxy-L-alaninyl)]-phosphate]: the results for the EC50 in experiment [1], in experiment [2] (setting [4]) and in experiment [3] (Homo sapiens) were 177 µM, 119 µM and 365 µM, respectively.

`COC(=O)[C@H](C)NP(=O)(OC[C@H]1O[C@@H](n2cc(/C=C/Br)c(=O)[nH]c2=O)CC1O)Oc1ccc([N+](=O)[O-])cc1` (stereo partly drawn) [Example 10, (E)-5-(2-Bromovinyl)-2 ′-deoxyuridine-5′-[para-nitrophenyl-(methoxy-L-alaninyl)]-phosphate]: the EC50 came to 105 µM in experiment [1], 96.7 µM in experiment [2] (setting [4]) and 10.4 µM in experiment [3] (Homo sapiens).

Consider `CCOC(=O)[C@H](C)NP(=O)(OC[C@H]1O[C@@H](n2cc(/C=C/Br)c(=O)[nH]c2=O)CC1O)Oc1ccc(Cl)cc1` (stereo partly drawn) [Example 11, (E)-5-(2-bromovinyl)-2′-deoxyuridine-5′-[4-chlorophenyl-(ethoxy-L-alaninyl)]-phosphate], for which the EC50 is 28.7 µM in experiment [1], 14.9 µM in experiment [2] (setting [4]) and 3.4 µM in experiment [3] (Homo sapiens).

Regarding `C[C@H](NP(=O)(OC[C@H]1O[C@@H](n2cc(/C=C/Br)c(=O)[nH]c2=O)CC1O)Oc1ccc(Cl)cc1)C(=O)OCc1ccccc1` (stereo partly drawn) [Example 12, (E)-5-(2-bromovinyl)-2′-deoxyuridine-5′-[4-chlorophenyl-(benzoxy-L-alaninyl)]-phosphate], the EC50 in experiment [1] came out at 6.2 µM; in experiment [2] (setting [4]), 3.4 µM; in experiment [3] (Homo sapiens) it was 2.4 µM.

In the case of `COC(=O)[C@H](C)NP(=O)(OC[C@H]1O[C@@H](n2cc(/C=C/Br)c(=O)[nH]c2=O)CC1O)Oc1ccc(Cl)cc1` (stereo partly drawn) [Example 13, (E)-5-(2-bromovinyl)-2′-deoxyuridine-5′-[4-chlorophenyl-(methoxy-L-alaninyl)]-phosphate], the EC50 in experiment [1] was found to be 61 µM; in experiment [2] (setting [4]) it was 70.2 µM; in experiment [3] (Homo sapiens), 13 µM.

Consider `CC(C)(NP(=O)(OC[C@H]1O[C@@H](n2cc(/C=C/Br)c(=O)[nH]c2=O)CC1O)Oc1ccccc1)C(=O)OCc1ccccc1` (stereo partly drawn) [Example 14, (E)-5-(2-bromovinyl)-2′-deoxyuridine-5′-[phenyl-(benzoxy-α,α-dimethylglycinyl)]-phosphate], for which the EC50 in experiment [1] amounted to 19 µM; in experiment [2] (setting [4]), 14.5 µM; in experiment [3] (Homo sapiens) it was 5.1 µM.

Turning to `COC(=O)[C@H](C)NP(=O)(OC[C@H]1O[C@@H](n2cc(/C=C/Br)c(=O)[nH]c2=O)CC1O)Oc1ccc(C(F)(F)F)cc1` (stereo partly drawn) [Example 15, (E)-5-(2-bromovinyl)-2′-deoxyuridine-5′-[para-(trifluoromethyl)-phenyl-(methoxy-L-alaninyl)]-phosphate], the EC50 in experiment [1] is 47 µM; in experiment [2] (setting [4]) it was 79.2 µM; in experiment [3] (Homo sapiens), 15 µM.

With `COC(=O)C1(NP(=O)(OC[C@H]2O[C@@H](n3cc(/C=C/Br)c(=O)[nH]c3=O)CC2O)Oc2ccccc2)CCCC1` (stereo partly drawn) [Example 16, (E)-5-(2-Bromovinyl)-2′-deoxyuridine-5′-[phenyl-(methoxy-α,α-cycloleucinyl)]-phosphate], the EC50 in experiment [1] was 79 µM; in experiment [2] (setting [4]) it was 77 µM; in experiment [3] (Homo sapiens), 16 µM.

`CCOC(=O)C1(NP(=O)(OC[C@H]2O[C@@H](n3cc(/C=C/Br)c(=O)[nH]c3=O)CC2O)Oc2ccccc2)CCCC1` (stereo partly drawn) [Example 17, (E)-5-(2-Bromovinyl)-2′-deoxyuridine-5′-[phenyl-(ethoxy-α, α-cycloleucinyl)]-phosphate]: the EC50 worked out at 44 µM in experiment [1], 81.3 µM in experiment [2] (setting [4]) and 41 µM in experiment [3] (Homo sapiens).

For the compound `O=C(OCc1ccccc1)C1(NP(=O)(OC[C@H]2O[C@@H](n3cc(/C=C/Br)c(=O)[nH]c3=O)CC2O)Oc2ccccc2)CCCC1` (stereo partly drawn) [Example 18, (E)-5-(2-Bromovinyl)-2′-deoxyuridine-5′-[phenyl-(benzoxy-α, α-cycloleucinyl)]-phosphate], the EC50 worked out at 78 µM in experiment [1], 9.7 µM in experiment [2] (setting [4]) and 33 µM in experiment [3] (Homo sapiens).

Turning to `CCOC(=O)[C@H](C)NP(=O)(OC[C@H]1O[C@@H](n2cc(/C=C/Br)c(=O)[nH]c2=O)CC1O)Oc1ccc(C(F)(F)F)cc1` (stereo partly shown) [Example 25], the EC50 in experiment [1] was 33.8 µM; in experiment [2] (setting [4]), 4.6 µM.

On to `COC(=O)C1(NP(=O)(OC[C@H]2O[C@@H](n3cc(/C=C/Br)c(=O)[nH]c3=O)CC2O)Oc2ccc(C(F)(F)F)cc2)CCCC1` (stereo partly drawn) [Example 28, (E)-5-(2-Bromovinyl)-2′-deoxyuridine-5′-[para-trifluorophenyl-(methoxy-α,α-cycloleucinyl)]-phosphate], for which the EC50 in experiment [1] was determined as 28.8 µM; in experiment [2] (setting [4]), 21.2 µM.

`O=C(OCc1ccccc1)C1(NP(=O)(OC[C@H]2O[C@@H](n3cc(/C=C/Br)c(=O)[nH]c3=O)CC2O)Oc2ccc(C(F)(F)F)cc2)CCCC1` (stereo partly drawn) [Example 30, (E)-5-(2-Bromovinyl)-2′-deoxyuridine-5′-[para-trifluorophenyl-(benzoxy-α,α-cycloleucinyl)]-phosphate]: the EC50 in experiment [1] came to 6.9 µM; in experiment [2] (setting [4]), 6.4 µM.

`O=C(OCc1ccccc1)C(Cc1ccccc1)NP(=O)(OCC1OC(n2cc(C=CBr)c(=O)[nH]c2=O)CC1O)Oc1ccccc1` (stereo not shown) [Example 54]: the EC50 in experiment [2] (setting [5]) was determined as 5.1 µM.

`CCOC(=O)C(C)(C)NP(=O)(OCC1OC(n2cc(C=CBr)c(=O)[nH]c2=O)CC1O)Oc1ccc(C(F)(F)F)cc1` (stereo not shown) [Example 59]: in experiment [2] (setting [5]), the EC50 was 24.7 µM.

`CCOC(=O)C(NP(=O)(OCC1OC(n2cc(C=CBr)c(=O)[nH]c2=O)CC1O)Oc1ccccc1)C(C)CC` (stereo not shown) [Example 73]: in experiment [3] (setting [6]), the EC50 came to 30.6 µM.

As to `O=C(CNP(=O)(OCC1OC(n2cc(C=CBr)c(=O)[nH]c2=O)CC1O)Oc1ccc(Cl)cc1)OCc1ccccc1` (stereo not shown) [Example 77], the EC50 in experiment [3] (setting [6]) was 150 µM.

On to `CC(C)[C@H](NP(=O)(OC[C@H]1O[C@@H](n2cc(/C=C/Br)c(=O)[nH]c2=O)C[C@@H]1O)Oc1ccc(C(F)(F)F)cc1)C(=O)OCc1ccccc1` (stereo partly shown) [Example 78], for which the EC50 in experiment [3] (setting [6]) came out at 1.6 µM.

As to `CC(C)(NP(=O)(OCC1OC(n2cc(C=CBr)c(=O)[nH]c2=O)CC1O)Oc1ccc(F)cc1)C(=O)OCc1ccccc1` (stereo not shown) [Example 84], in experiment [3] (setting [6]), the EC50 came out at 4.5 µM.

On to `CC(C)C(NP(=O)(OCC1OC(n2cc(C=CBr)c(=O)[nH]c2=O)CC1O)Oc1ccccc1)C(=O)OCc1ccccc1` (stereo not shown) [Example 85], for which, in experiment [3] (setting [6]), the EC50 came to 31.2 µM.

Take `CC(C)C(NP(=O)(OCC1OC(n2cc(C=CBr)c(=O)[nH]c2=O)CC1O)Oc1ccc(Cl)cc1)C(=O)OCc1ccccc1` (stereo not shown) [Example 86]: the EC50 in experiment [3] (setting [6]) amounted to 0.9 µM.

`O=C(OCc1ccccc1)C(NP(=O)(OCC1OC(n2cc(C=CBr)c(=O)[nH]c2=O)CC1O)Oc1ccc(C(F)(F)F)cc1)c1ccccc1` (stereo not shown) [Example 91]: the EC50 in experiment [3] (setting [6]) turned out to be 0.7 µM.

With “propenate-2′-deoxyuridine [Example 67, reference compound]”, in experiment [2] (setting [5]), the EC50 was found to be 93.7 µM.
